Experimental data: patent US7855177B1, “Methods and kits for preventing hypoglycemia” (Cebix Inc., priority 2009, dated 2010)

Tested on: type 1 diabetes patients with peripheral neuropathy
Experiment: Phase II trial: ECG and vital signs
Type: in vivo, human
Settings: for BPd (diastolic blood pressure), change from baseline to 6 months treatment, Mean ± SD / BPd (diastolic blood pressure), change from baseline to 6 months treatment, Median / BPs (systolic blood pressure), change from baseline to 6 months treatment, Mean ± SD / BPs (systolic blood pressure), change from baseline to 6 months treatment, Median / Heart rate, change from baseline to 6 months treatment, Mean ± SD / Heart rate, change from baseline to 6 months treatment, Median / QTc-interval Bazett, change from baseline to 6 months treatment, Mean ± SD / QTc-interval Bazett, change from baseline to 6 months treatment, Median / QTc-interval Fredericia, change from baseline to 6 months treatment, Mean ± SD / QTc-interval Fredericia, change from baseline to 6 months treatment, Median: PP data set
Method: ECG was performed at baseline and at end of study, i.e., visit 4 (at 6 months±2 weeks from the S/B visit).

## CC(C)C[C@H](NC(=O)[C@H](C)NC(=O)[C@H](CC(C)C)NC(=O)[C@@H]1CCCN1C(=O)[C@H](CCC(N)=O)NC(=O)[C@H](CC(C)C)NC(=O)[C@H](CO)NC(=O)CNC(=O)[C@H](C)NC(=O)CNC(=O)[C@@H]1CCCN1C(=O)CNC(=O)CNC(=O)CNC(=O)[C@H](CC(C)C)NC(=O)[C@H](CCC(=O)O)NC(=O)[C@@H](NC(=O)[C@H](CCC(N)=O)NC(=O)CNC(=O)[C@@H](NC(=O)[C@H](CCC(N)=O)NC(=O)[C@H](CC(C)C)NC(=O)[C@H](CC(=O)O)NC(=O)[C@H](CCC(=O)O)NC(=O)[C@H](C)NC(=O)[C@@H](N)CCC(=O)O)C(C)C)C(C)C)C(=O)N[C@@H](CCC(=O)O)C(=O)NCC(=O)N[C@@H](CO)C(=O)N[C@@H](CC(C)C)C(=O)N[C@@H](CCC(N)=O)C(=O)O [C-peptide]
High-dose C-peptide, n = 39
  BPd (diastolic blood pressure), change from baseline to 6 months treatment, Mean ± SD: −2.6 ± 8.0 mm Hg
  BPd (diastolic blood pressure), change from baseline to 6 months treatment, Median: −1.0 mm Hg
  BPs (systolic blood pressure), change from baseline to 6 months treatment, Mean ± SD: −8.8 ± 10.0 mm Hg
  BPs (systolic blood pressure), change from baseline to 6 months treatment, Median: −8.0 mm Hg
  Heart rate, change from baseline to 6 months treatment, Mean ± SD: −3.2 ± 10.0 bpm
  Heart rate, change from baseline to 6 months treatment, Median: −4.0 bpm
  QTc-interval Bazett, change from baseline to 6 months treatment, Mean ± SD: -4.5 ± 20.3 ms
  QTc-interval Bazett, change from baseline to 6 months treatment, Median: 0.0 ms
  QTc-interval Fredericia, change from baseline to 6 months treatment, Mean ± SD: -0.5 ± 16.2 ms
  QTc-interval Fredericia, change from baseline to 6 months treatment, Median: 0.0 ms
Low-dose C-peptide, n = 53
  BPd (diastolic blood pressure), change from baseline to 6 months treatment, Mean ± SD: −2.7 ± 8.2 mm Hg
  BPd (diastolic blood pressure), change from baseline to 6 months treatment, Median: −1.0 mm Hg
  BPs (systolic blood pressure), change from baseline to 6 months treatment, Mean ± SD: −2.1 ± 12.8 mm Hg
  BPs (systolic blood pressure), change from baseline to 6 months treatment, Median: −1.0 mm Hg
  Heart rate, change from baseline to 6 months treatment, Mean ± SD: −0.9 ± 8.2 bpm
  Heart rate, change from baseline to 6 months treatment, Median: −2.0 bpm
  QTc-interval Bazett, change from baseline to 6 months treatment, Mean ± SD: -0.1 ± 17.5 ms
  QTc-interval Bazett, change from baseline to 6 months treatment, Median: 0.0 ms
  QTc-interval Fredericia, change from baseline to 6 months treatment, Mean ± SD: 0.9 ± 14.1 ms
  QTc-interval Fredericia, change from baseline to 6 months treatment, Median: 1.3 ms
Any of the three treatment groups
  changes in heart rate, blood pressure, and QTc: nor were there any significant changes
high-dose C-peptide group, p<0.004, not different from placebo
  decrease in systolic blood pressure compared to the low-dose C-peptide group: significantly greater decrease
